Experimental data from patent US10774071B2, “PD-1/PD-L1 inhibitors” (Gilead Sciences, Inc., priority 2018, dated 2020).
Read-outs that look alike come from different tables or passages of the source.

Key:
PD-1/PD-L1 = PD-1/PD-L1 (Homo sapiens (Human), UniProt Q9NZQ7); test: PD-1/PD-L1 biochemical protein-protein interaction assay (ALPHA); assay type: binding; details: read-out: IC50 PD-L1-PD1
PD-L1 = PD-L1 (Homo sapiens (Human), UniProt Q9NZQ7); test: PD-L1/PD-L1 dimerization biochemical protein-protein interaction assay (ALPHA); assay type: binding; details: read-out: AC50 PDL1 Dimer 1 nM
PD-L1, sequence (Q9NZQ7 19-238): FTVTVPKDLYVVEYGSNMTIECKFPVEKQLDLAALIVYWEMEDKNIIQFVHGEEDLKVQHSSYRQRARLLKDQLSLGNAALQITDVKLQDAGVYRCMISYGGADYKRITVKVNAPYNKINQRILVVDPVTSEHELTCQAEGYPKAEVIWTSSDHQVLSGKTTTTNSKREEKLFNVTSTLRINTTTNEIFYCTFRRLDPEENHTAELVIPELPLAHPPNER
PD-L1, sequence (Q9NZQ7 19-238): as above

FFA1 (h) (GRP40) = FFA1 (h) (GRP40) (Homo sapiens (Human), UniProt O14842); test: GPR40 functional assay, agonist effect (intracellular Ca2+, fluorimetry); assay type: cell-based; details: HEK293, human recombinant GPR40 in HEK-293 cells, control 100 μM linoleic acid
FFA1 (h) (GRP40), sequence (O14842 whole entry): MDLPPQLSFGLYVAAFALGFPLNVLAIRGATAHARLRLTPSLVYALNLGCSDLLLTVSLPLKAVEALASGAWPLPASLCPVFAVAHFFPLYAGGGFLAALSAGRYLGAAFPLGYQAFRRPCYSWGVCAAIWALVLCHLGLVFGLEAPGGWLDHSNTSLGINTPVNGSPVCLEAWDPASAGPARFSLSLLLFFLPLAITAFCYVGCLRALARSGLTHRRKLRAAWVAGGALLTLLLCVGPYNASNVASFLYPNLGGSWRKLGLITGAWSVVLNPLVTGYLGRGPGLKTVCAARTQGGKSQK
Description: (§1) Select compounds were tested in a functional GRP40 assay as described in Briscoe, C. P. et al. (Brit. J. Pharmacol., (2006), 148: 619-628) to determine agonist/antagonist activity. […] Using a HEK-293 cell line transiently transduced to express GPR40, the agonist/antagonist activity of select compounds has been assessed.

FFA1 (h) (GPR40) = FFA1 (h) (GPR40) (Homo sapiens (Human), UniProt O14842); test: GPR40 functional assay, antagonist effect (intracellular Ca2+, fluorimetry); assay type: cell-based; details: stimulus linoleic acid 20000 nM; for inhibition at 10 µM: HEK293, human recombinant GPR40 in HEK-293 cells
FFA1 (h) (GPR40), sequence (O14842 whole entry): as above
Description: as §1

[1] = 0.3 nM His tagged PD-L1, 2.5 nM biotinylated Fc-PD-1, Table 3B
[2] = 0.5 nM His tagged PD-L1 and 0.5 nM FLAG tagged PD-L1, Table 4B
[3] = 1st replicate, read-out: % of control agonist response, 1st
[4] = 2nd replicate, read-out: % of control agonist response, 2nd
[5] = mean, read-out: % of control agonist response, Mean
[6] = 1st replicate, read-out: % inhibition of control agonist response, 1st
[7] = 2nd replicate, read-out: % inhibition of control agonist response, 2nd
[8] = mean, read-out: % inhibition of control agonist response, Mean
[9] = 0.3 nM His tagged PD-L1, 2.5 nM biotinylated Fc-PD-1, readings of 0.064 nM are equal to or less than 0.064 nM
[10] = 0.5 nM His tagged PD-L1 and 0.5 nM FLAG tagged PD-L1, Table 4A

PD-1/PD-L1, sequence (Q9NZQ7 19-238): as the sequence (Q9NZQ7 19-238) above

Row | IC50 (PD-1/PD-L1; [1]) | AC50 (PD-L1; [2]) | IC50 (PD-1/PD-L1; [9]) | AC50 (PD-L1; [10]) | SMILES | also measured
1 | 0.064 nM | 32.4 nM |  |  | COc1nc(-c2cccc(-c3cccc4c3CC[C@@H]4Oc3nc(OC)c(CN4CC5(C(=O)O)CCC4CC5)nc3C)c2Cl)ccc1CNC[C@@H]1CCC(=O)N1 [B-149] | activity at 10 µM (FFA1 (h) (GRP40); [3]): -2%; activity at 10 µM (FFA1 (h) (GRP40); [4]): -0.5%; activity at 10 µM (FFA1 (h) (GRP40); [5]): -1.2%; inhibition at 10 µM (FFA1 (h) (GPR40); [6]): 8%; inhibition at 10 µM (FFA1 (h) (GPR40); [7]): 15%; inhibition at 10 µM (FFA1 (h) (GPR40); [8]): 11.5%
2 | 0.064 nM | 12.5 nM |  |  | COc1nc(-c2cccc(-c3cccc4c3CC[C@@H]4Oc3nc(OC)c(CN4C[C@H]5C[C@]4(C(=O)O)[C@H]5C)cc3Cl)c2Cl)ccc1CNC[C@@H]1CCC(=O)N1 [B-180] | 
3 | 0.111 nM | 54.3 nM |  |  | COc1nc(-c2cccc(-c3cccc4c3CC[C@@H]4Oc3nc(OC)c(CN4CC5CCC4C(C(=O)O)C5)cc3Cl)c2Cl)ccc1CNC[C@@H]1CCC(=O)N1 (some centres unmarked) [B-98] | 
4 | 0.064 nM | 6.43 nM |  |  | COc1nc(-c2cccc(-c3cccc4c3CC[C@@H]4Oc3nc(OC)c(CN4CCC5CC4(C(=O)O)C5)cc3C(F)(F)F)c2Cl)ccc1CN1CC2(CCC(=O)N2)C1 [B-228] | 
5 | 0.064 nM | 7.26 nM |  |  | COc1nc(-c2cccc(-c3cccc4c3CC[C@@H]4Oc3nc(OC)c(CNCCC(=O)O)cc3C(F)(F)F)c2Cl)ccc1CNC[C@@H]1CCC(=O)N1 [B-267] | 
6 | 0.064 nM | 12.1 nM |  |  | COc1nc(-c2cccc(-c3cccc4c3CC[C@@H]4Oc3nc(OC)c(CNC(C)(CO)C(=O)O)cc3C)c2Cl)ccc1CNC[C@@H]1CCC(=O)N1 (some centres unmarked) [B-240] | 
7 | 0.064 nM | 9.85 nM |  |  | COc1nc(O[C@H]2CCc3c(-c4cccc(-c5cc(F)c(CNC[C@@H]6CCC(=O)N6)c(OC)n5)c4Cl)cccc32)c(C(F)(F)F)cc1CNC1(C(=O)O)CC1 [B-189] | 
8 | 0.064 nM | 17 nM |  |  | COc1nc(-c2cccc(-c3cccc4c3CC[C@@H]4Oc3nc(OC)c(CN4CC[C@@](C)(C(=O)O)C4)cc3C(F)(F)F)c2Cl)ccc1CN[C@H]1C[C@](C)(O)C1 [B-213] | 
9 | 0.113 nM | 107 nM |  |  | COc1nc(O[C@H]2CCc3c(-c4cccc(-c5cc(C)c(CN6CC(C)(O)C6)c(OC)n5)c4Cl)cccc32)c(Cl)cc1CN1CC(C(=O)O)C1 [B-59] | 
10 | 0.064 nM | 11 nM |  |  | COc1nc(-c2cccc(-c3cccc4c3CC[C@@H]4Oc3nc(OC)c(CN4[C@@H]5C[C@@H]5C[C@H]4C(=O)O)cc3C(F)(F)F)c2Cl)ccc1CNC[C@@H]1CCC(=O)N1 [B-136] | 
11 | 0.064 nM | 5.12 nM |  |  | COc1nc(-c2cccc(-c3cccc4c3CC[C@@H]4Oc3nc(OC)c(CN4CC5CC4(C(=O)O)C5)cc3C(F)(F)F)c2Cl)ccc1CNC[C@@H]1CCC(=O)N1 [B-145] | 
12 | 0.064 nM | 26.4 nM |  |  | CNC(=O)C1CCN(Cc2cc(Cl)c(O[C@H]3CCc4c(-c5cccc(-c6ccc(CNC[C@@H]7CCC(=O)N7)c(OC)n6)c5Cl)cccc43)nc2OC)C1 (some centres unmarked) [B-88] | 
13 | 0.064 nM | 3.8 nM |  |  | COc1cc(-c2cccc(-c3cccc4c3CC[C@@H]4Oc3nc(OC)c(CN4CC5(C(=O)O)CCC4CC5)cc3Cl)c2Cl)ccc1CNC[C@@H]1CCC(=O)N1 [B-39] | 
14 | 0.064 nM | 4.54 nM |  |  | COc1cc(-c2cccc(-c3cccc4c3CC[C@@H]4Oc3nc(OC)c(CN4CC5(C(=O)O)CCC4CC5)cc3C(F)(F)F)c2Cl)cc(F)c1CNC[C@@H]1CCC(=O)N1 [B-194] | 
15 | 0.064 nM | 5.21 nM |  |  | COc1nc(-c2cccc(-c3cccc4c3CC[C@@H]4Oc3nc(OC)c(CN4CC5(C(=O)O)CCC4CC5)cc3C(F)(F)F)c2Cl)ccc1CNC[C@@H]1CC(O)C(=O)N1 (some centres unmarked) [B-203] | 
16 | 0.064 nM | 17.5 nM |  |  | COc1nc(-c2cccc(-c3cccc4c3CC[C@@H]4Oc3nc(OC)c(CN4C[C@@H]5C[C@]5(C(=O)O)C4)cc3C(F)(F)F)c2Cl)ccc1CNC[C@@H]1CCC(=O)N1 [B-199] | 
17 | 0.064 nM | 1.62 nM |  |  | COc1cc(-c2cccc(-c3cccc4c3CC[C@@H]4Oc3nc(OC)c(CNC(C)(C)C(=O)O)cc3C(F)(F)F)c2Cl)ccc1CNC[C@@H]1CCC(=O)N1 [B-121] | 
18 | 0.064 nM | 7.96 nM |  |  | COc1nc(-c2cccc(-c3cccc4c3CC[C@@H]4Oc3nc(OC)c(CN4CCC[C@@H]4C(=O)O)cc3C(F)(F)F)c2Cl)ccc1CNC[C@@H]1CCC(=O)N1 [B-6] | 
19 | 0.095 nM | 12.9 nM |  |  | COc1nc(-c2cccc(-c3cccc4c3CC[C@@H]4Oc3nc(OCc4cncc(Cl)c4)c(CNC4(C(=O)O)CC4)cc3Cl)c2Cl)ccc1CNC[C@@H]1CCC(=O)N1 [B-32] | 
20 | 0.064 nM | 21.5 nM |  |  | COc1nc(-c2cccc(-c3cccc4c3CC[C@@H]4Oc3nc(OC)c(CN4CCC(C)(C(=O)O)CC4)cc3Cl)c2Cl)ccc1CNC[C@@H]1CCC(=O)N1 [B-178] | 
21 | 0.064 nM | 0.988 nM |  |  | COc1cc(-c2cccc(-c3cccc4c3CC[C@@H]4Oc3nc(OC)c(CN4CCC[C@@]4(C)C(=O)O)cc3C(F)(F)F)c2Cl)ccc1CNC[C@@H]1CCC(=O)N1 [B-118] | 

The next lines start with the molecule.

Row | SMILES | IC50 (PD-1/PD-L1; [1]) | AC50 (PD-L1; [2]) | IC50 (PD-1/PD-L1; [9]) | AC50 (PD-L1; [10]) | also measured
22 | COc1nc(-c2cccc(-c3cccc4c3CC[C@@H]4Nc3nc(OC)c(CN4CC5(C(=O)O)CCC4CC5)nc3C(F)(F)F)c2Cl)ccc1CNC[C@@H]1CCC(=O)N1 [A-18, 2-((5-(((S)-4-(2-chloro-3-(6-methoxy-5-(((((S)-5-oxopyrrolidin-2-yl)methyl)amino)methyl)pyridin-2-yl)phenyl)-2,3-dihydro-1H-inden-1-yl)amino)-3-methoxy-6-(trifluoromethyl)pyrazin-2-yl)methyl)-2-azabicyclo[2.2.2]octane-4-carboxylic acid] |  |  | ≤ 0.064 nM | 15.7 nM | activity at 10 µM (FFA1 (h) (GRP40); [3]): -0.6%; activity at 10 µM (FFA1 (h) (GRP40); [4]): -1.9%; activity at 10 µM (FFA1 (h) (GRP40); [5]): -1.3%; % inhibition of control agonist response, 1st (FFA1 (h) (GPR40); 10 μM, human recombinant GPR40 in HEK-293 cells, 1st replicate): 8.3%; % inhibition of control agonist response, 2nd (FFA1 (h) (GPR40); 10 μM, human recombinant GPR40 in HEK-293 cells, 2nd replicate): 17.4%; % inhibition of control agonist response, Mean (FFA1 (h) (GPR40); 10 μM, human recombinant GPR40 in HEK-293 cells, mean): 12.8%
23 | COc1nc(-c2cccc(-c3cccc4c3CC[C@@H]4Nc3nc(OC)c(CNC4(C(=O)O)CC4)cc3C(F)(F)F)c2Cl)ccc1CNC[C@@H]1CCC(=O)N1 [A-41] |  |  | ≤ 0.064 nM | 7.6 nM | activity at 10 µM (FFA1 (h) (GRP40); [3]): 1.1%; activity at 10 µM (FFA1 (h) (GRP40); [4]): 0.1%; activity at 10 µM (FFA1 (h) (GRP40); [5]): 0.6%; inhibition at 10 µM (FFA1 (h) (GPR40); [6]): 23.1%; inhibition at 10 µM (FFA1 (h) (GPR40); [7]): 13.1%; inhibition at 10 µM (FFA1 (h) (GPR40); [8]): 18.1%
24 | COC(=O)C12CCC(CC1)N(Cc1nc(C(F)(F)F)c(N[C@H]3CCc4c(-c5cccc(-c6ccc(CNC[C@@H]7CCC(=O)N7)c(OC)n6)c5Cl)cccc43)nc1OC)C2 [A-82] |  |  | 0.14 nM | 84.9 nM | 
25 | COc1nc(-c2cccc(-c3cccc4c3CC[C@@H]4Nc3nc(OC)c(CN4CC[C@@](C)(C(=O)O)C4)nc3C(F)(F)F)c2Cl)ccc1CN1CC(C)(O)C1 [A-68] |  |  | ≤ 0.064 nM | 83.7 nM | 
26 | COc1nc(-c2cccc(-c3cccc4c3CC[C@@H]4Nc3nc(OC)c(CN[C@H](C(=O)O)C(C)C)nc3C(F)(F)F)c2Cl)ccc1CNC[C@@H]1CCC(=O)N1 [A-105] |  |  | ≤ 0.064 nM | 40.6 nM | 
27 | COc1nc(-c2cccc(-c3cccc4c3CC[C@@H]4Nc3nc(OC)c(CN4CC(C)(C(=O)O)C4)cc3C(F)(F)F)c2Cl)ccc1CNC[C@@H]1CCC(=O)N1 [A-53] |  |  | ≤ 0.064 nM | 16.2 nM | 
28 | COc1nc(-c2cccc(-c3cccc4c3CC[C@@H]4Nc3nc(OC)c(CN[C@@H](C)C(=O)O)nc3C(F)(F)F)c2Cl)ccc1CNC[C@@H]1CC(O)C(=O)N1 (some centres unmarked) [A-45] |  |  | ≤ 0.064 nM | 5.86 nM | 
29 | COc1nc(-c2cccc(-c3cccc4c3CC[C@@H]4Nc3nc(OC)c(CN4C[C@H](C)C[C@H]4C(=O)O)nc3C(F)(F)F)c2Cl)ccc1CNC[C@@H]1CCC(=O)N1 [A-76] |  |  | ≤ 0.064 nM | 30.2 nM | 
30 | COc1nc(-c2cccc(-c3cccc4c3CC[C@@H]4Nc3nc(OC)c(CN4CC[C@H](C(=O)O)C4)cc3C(F)(F)F)c2Cl)ccc1CNC[C@@H]1CCC(=O)N1 [A-3] |  |  | ≤ 0.064 nM | 13.9 nM | 
31 | COc1nc(-c2cccc(-c3cccc4c3CC[C@@H]4Nc3nc(OC)c(CN4C5CCC4(C(=O)O)CC5)cc3C(F)(F)F)c2Cl)ccc1CNC[C@@H]1CCC(=O)N1 [A-61] |  |  | ≤ 0.064 nM | 10.6 nM | 
32 | COc1cc(N[C@H]2CCc3c(-c4cccc(-c5ccc(CNC[C@@H]6CCC(=O)N6)c(OC)n5)c4Cl)cccc32)c(C(F)(F)F)nc1CN [A-44] |  |  | ≤ 0.064 nM | 10.6 nM | 
33 | COc1nc(-c2cccc(-c3cccc4c3CC[C@@H]4Nc3nc(OC)c(CN4CC5(C(=O)O)CCC4CC5)nc3C(F)(F)F)c2Cl)ccc1CNC[C@@H]1CC(O)C(=O)N1 (some centres unmarked) [A-47] |  |  | ≤ 0.064 nM | 22.3 nM | 
34 | COc1cc(-c2cccc(-c3cccc4c3CC[C@@H]4Nc3nc(OC)c(CN4CC5(C(=O)O)CCC4CC5)nc3C(F)(F)F)c2Cl)cc(F)c1CNC[C@@H]1CCC(=O)N1 [A-33] |  |  | ≤ 0.064 nM | 11.7 nM | 
